According to US11155586B2, “Cystine knot scaffold platform” (Genentech, Inc., priority 2015, dated 2021):
Positions of bridges follow the written chain, without caps; N, C: chain ends. Residues, ends and D or L forms follow the SMILES beside them.

Columns and labels:
hVEGF(8-109) = molecular target: T1, hVEGF(8-109) (Homo sapiens, UniProt P15692); test: Spot phage ELISA; assay type: binding
T1 construct: hVEGF(8-109) or BSA were coated on 384-well MAXISORP™ immunoplates
T1 sequence (P15692 214-315): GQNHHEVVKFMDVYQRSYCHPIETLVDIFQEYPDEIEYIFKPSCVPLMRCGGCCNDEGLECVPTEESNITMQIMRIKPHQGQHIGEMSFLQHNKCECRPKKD
Description: After four rounds of binding selection, individual phage clones were picked and inoculated into 450 μl 2YT media containing 50 µg/ml Carbenecillin and M13-KO7 helper phage in 96-well blocks, which were grown at 37° C. overnight. The supernatant was analyzed with spot phage ELISA as follows: hVEGF(8-109) or BSA were coated on 384-well MAXISORP™ immunoplates and phage supernatant diluted (1:3) with PBT buffer was added to the wells. The plates were washed and bound phage was detected with anti-M13-HRP followed by TMB substrate. In these assays, phage binding to BSA alone was tested in parallel to assess background binding. Clones whose binding signals for hVEGF-A (8-109) were more than 3 times higher than to BSA (background) were considered positive. Positive clones were subjected to DNA sequence analysis.

hVEGF-A (8-109) = molecular target: T2, hVEGF-A (8-109) (Homo sapiens, UniProt P15692); test: SPR binding assay (BIACORE 3000, 37° C.)
T2 sequence (P15692 34-135 isoform P15692-4): T1 sequence (P15692 214-315)
Description: Depending on the format of the assay either a streptavidin sensor (SA) or a dextran-coated (CM5) sensor was utilized as described below.
For use with the SA sensor, VEGF-A was first biotinylated (no more than 2 biotin/VEGF-A) by incubating the protein with EZ-link NHS-PEG4-Biotin (Pierce) in a 1:1.5 molar ratio respectively, in PBS for 2 hours on ice. Reaction was then quenched by addition of 10 molar excess of Glycine pH 8.0 and the sample was buffer exchanged into PBS using an Amicon 0.5 mL 3000 MWCO ultra-centrifugal filters (EMD Millipore). The biotinylation state of the protein was verified by LC-MS analysis. Biotinylated VEGF-A was then captured on the surface until a resonance unit (RU) signal of about ˜400. For immobilization of VEGF-A on CM5 sensor, the surface was first activated with a mixture of N-ethyl-N′-(3-dimethylaminopropyl)carbodiimide hydrochloride and N-hydroxysuccinimide (EDC/NHS) according to the supplier instructions. VEGF-A was then diluted into coupling buffer (0.1 M Acetate Buffer, pH 5.0) and injected until the signal reached about ˜400 RU followed by a wash with 1 M ethanolamine pH 8.0 to quench remaining activated sites.
Following the capture step, a series of the peptide concentrations were prepared in HBS-EP buffer with matching DMSO concentrations to 0.1% and injected at a flow rate of […]. The resulting sensorgrams were then analyzed using a 1:1 binding model to obtain kinetic data and affinities using Scrubber 2.0 (BioLogic Software).

[1] = Table 37, surface plasmon resonance, VEGF-A
[2] = loop 2 variants based on VEGF_CKP9.63 framework, Table 27

Q: With CC[C@H](C)[C@@H]1NC(=O)[C@H](CC(N)=O)NC(=O)[C@@H](NC(=O)CN)CSSC[C@@H](C(=O)N[C@H](C(=O)N[C@H]2CSSC[C@@H](C(=O)NCC(=O)O)NC(=O)[C@H](CO)NC(=O)[C@H](CCC(N)=O)NC(=O)[C@H](Cc3ccc(O)cc3)NC(=O)[C@H](Cc3ccc(O)cc3)NC(=O)[C@H](CCC(N)=O)NC2=O)C(C)C)NC(=O)CNC(=O)[C@H](C)NC(=O)[C@H](CC(C)C)NC(=O)[C@@H]2CSSC[C@H](NC(=O)CNC(=O)[C@H](Cc3c[nH]c4ccccc34)NC(=O)[C@H](Cc3ccccc3)NC(=O)[C@@H]3CCCN3C(=O)[C@H](CC(C)C)NC(=O)[C@H](CCSC)NC1=O)C(=O)NCC(=O)N[C@@H](CCC(N)=O)C(=O)N[C@@H](CO)C(=O)N[C@@H](Cc1ccccc1)C(=O)N[C@@H](CCC(=O)O)C(=O)N2 [VEGF_CKP9.54.1] (H-GCNIMLPFWGCGQSFECLAGCVCQYYQSCG-OH; disulfide 2-21, 11-17, 23-29 (inferred); N-terminus and C-terminus assumed) as the compound, how does the “S/N (signal to noise ratio as compared to BSA control)” value (hVEGF(8-109); Table 26) read?
A: Its value is 29.9.

Q: And the ELISA (hVEGF(8-109); loop 2 variants based on 9.54 framework, Table 26)?
A: The ELISA was 2.4.

Q: And the kd (hVEGF-A (8-109); [1])?
A: The kd was 0.36.

Q: For CSCC[C@@H]1NC(=O)[C@H](C(C)C)NC(=O)[C@H](CC(=O)O)NC(=O)[C@@H](NC(=O)CN)CSSC[C@@H](C(=O)N[C@H](C(=O)N[C@H]2CSSC[C@@H](C(=O)NCC(=O)O)NC(=O)[C@H](CO)NC(=O)[C@H](CC(N)=O)NC(=O)[C@H](Cc3ccc(O)cc3)NC(=O)[C@H](Cc3c[nH]c4ccccc34)NC(=O)[C@H](Cc3c[nH]cn3)NC2=O)C(C)C)NC(=O)CNC(=O)[C@H](C)NC(=O)[C@H](CC(C)C)NC(=O)[C@@H]2CSSC[C@H](NC(=O)CNC(=O)[C@H](Cc3c[nH]c4ccccc34)NC(=O)[C@H](Cc3ccc(O)cc3)NC(=O)[C@@H]3CCCN3C(=O)[C@H](CCC(N)=O)NC1=O)C(=O)NCC(=O)N[C@@H](CCC(=O)O)C(=O)N[C@@H](CC(N)=O)C(=O)N[C@@H](Cc1ccccc1)C(=O)N[C@@H](CC(C)C)C(=O)N2 [VEGF_CKP9.63.1] (H-GCDVMQPYWGCGENFLCLAGCVCHWYNSCG-OH; disulfide 2-21, 11-17, 23-29 (inferred); N-terminus and C-terminus assumed), which “S/N (signal to noise ratio as compared to BSA control)” value (hVEGF(8-109); Table 27) is on record?
A: Its value is 25.2.

Q: What about the ELISA (hVEGF(8-109); [2]) of the same compound?
A: Its ELISA is 2.0.

Q: What about the kd (hVEGF-A (8-109); hVEGF-A (8-109), Table 29) of the same compound?
A: Its kd is 0.37.

Q: For CSCC[C@@H]1NC(=O)[C@H](CC(=O)O)NC(=O)[C@H](CCCNC(=N)N)NC(=O)CNC(=O)[C@@H]2CSSC[C@H](NC(=O)[C@H](CC(=O)O)NC1=O)C(=O)N[C@@H](CC(C)C)C(=O)N[C@@H](C)C(=O)NCC(=O)N[C@H](C(=O)N[C@H](C(=O)N[C@H]1CSSC[C@@H](C(=O)NCC(=O)O)NC(=O)[C@H](CO)NC(=O)[C@H](CC(N)=O)NC(=O)[C@H](Cc3ccc(O)cc3)NC(=O)[C@H](Cc3c[nH]c4ccccc34)NC(=O)[C@H](Cc3c[nH]cn3)NC1=O)C(C)C)CSSC[C@H](NC(=O)CN)C(=O)N[C@@H](CC(=O)O)C(=O)N[C@@H](C(C)C)C(=O)N[C@@H](CCSC)C(=O)N[C@@H](CCC(N)=O)C(=O)N1CCC[C@H]1C(=O)N[C@@H](Cc1ccc(O)cc1)C(=O)N[C@@H](Cc1c[nH]c3ccccc13)C(=O)NCC(=O)N2 [VEGF_CKP9.63.27] (H-GCDVMQPYWGCGRDMDCLAGCVCHWYNSCG-OH; disulfide 2-21, 11-17, 23-29 (inferred); N-terminus and C-terminus assumed), which “S/N (signal to noise ratio as compared to BSA control)” value (hVEGF(8-109); Table 27) is on record?
A: The value was 26.0.

Q: And the ELISA (hVEGF(8-109); [2])?
A: The ELISA was 2.1.

Q: What about the kd (hVEGF-A (8-109); hVEGF-A (8-109), Table 29) of the same compound?
A: Its kd is 0.15.

Q: Which results are given for CSCC[C@@H]1NC(=O)[C@H](CCC(=O)O)NC(=O)[C@@H]2CSSC[C@H](NC(=O)[C@H](CC(=O)O)NC(=O)[C@H](Cc3ccccc3)NC(=O)[C@H](CC(=O)O)NC1=O)C(=O)N[C@@H](CC(C)C)C(=O)N[C@@H](C)C(=O)NCC(=O)N[C@H](C(=O)N[C@H](C(=O)N[C@H]1CSSC[C@@H](C(=O)NCC(=O)O)NC(=O)[C@H](CO)NC(=O)[C@H](CC(N)=O)NC(=O)[C@H](Cc3ccc(O)cc3)NC(=O)[C@H](Cc3c[nH]c4ccccc34)NC(=O)[C@H](Cc3c[nH]cn3)NC1=O)C(C)C)CSSC[C@H](NC(=O)CN)C(=O)N[C@@H](CC(=O)O)C(=O)N[C@@H](C(C)C)C(=O)N[C@@H](CCSC)C(=O)N[C@@H](CCC(N)=O)C(=O)N1CCC[C@H]1C(=O)N[C@@H](Cc1ccc(O)cc1)C(=O)N[C@@H](Cc1c[nH]c3ccccc13)C(=O)NCC(=O)N2 [VEGF_CKP9.63.44] (H-GCDVMQPYWGCEMDFDCLAGCVCHWYNSCG-OH; disulfide 2-21, 11-17, 23-29 (inferred); N-terminus and C-terminus assumed)?
A: S/N (signal to noise ratio as compared to BSA control) (hVEGF(8-109); Table 27): 19.5; ELISA (hVEGF(8-109); [2]): 1.7; kd (hVEGF-A (8-109); hVEGF-A (8-109), Table 29): 0.11

Q: With CSCC[C@@H]1NC(=O)[C@H](C(C)C)NC(=O)[C@H](CC(=O)O)NC(=O)[C@@H](NC(=O)CN)CSSC[C@@H](C(=O)N[C@H](C(=O)N[C@H]2CSSC[C@@H](C(=O)NCC(=O)O)NC(=O)[C@H](CO)NC(=O)[C@H](CC(N)=O)NC(=O)[C@H](Cc3ccc(O)cc3)NC(=O)[C@H](Cc3c[nH]c4ccccc34)NC(=O)[C@H](Cc3c[nH]cn3)NC2=O)C(C)C)NC(=O)CNC(=O)[C@H](C)NC(=O)[C@H](CC(C)C)NC(=O)[C@@H]2CSSC[C@H](NC(=O)CNC(=O)[C@H](Cc3c[nH]c4ccccc34)NC(=O)[C@H](Cc3ccc(O)cc3)NC(=O)[C@@H]3CCCN3C(=O)[C@H](CCC(N)=O)NC1=O)C(=O)NCC(=O)N[C@@H](CCC(=O)O)C(=O)N[C@@H](CO)C(=O)N[C@@H](CC(C)C)C(=O)N[C@@H](CO)C(=O)N2 [VEGF_CKP9.63.69] (H-GCDVMQPYWGCGESLSCLAGCVCHWYNSCG-OH; disulfide 2-21, 11-17, 23-29 (inferred); N-terminus and C-terminus assumed) as the compound, how does the “S/N (signal to noise ratio as compared to BSA control)” value (hVEGF(8-109); Table 27) read?
A: The value was 23.7.

Q: And the ELISA (hVEGF(8-109); [2])?
A: Its ELISA is 2.9.

Q: And the kd (hVEGF-A (8-109); hVEGF-A (8-109), Table 29)?
A: The kd was 0.20.

Q: CSCC[C@@H]1NC(=O)[C@H](CC(C)C)NC(=O)[C@H](CCC(N)=O)NC(=O)[C@@H](NC(=O)CN)CSSC[C@@H](C(=O)N[C@H](C(=O)N[C@H]2CSSC[C@@H](C(=O)NCC(=O)O)NC(=O)[C@H](CO)NC(=O)[C@H](CCC(N)=O)NC(=O)[C@H](Cc3ccc(O)cc3)NC(=O)[C@H](Cc3c[nH]c4ccccc34)NC(=O)[C@H](Cc3c[nH]cn3)NC2=O)C(C)C)NC(=O)CNC(=O)[C@H](C)NC(=O)[C@H](CC(C)C)NC(=O)[C@@H]2CSSC[C@H](NC(=O)CNC(=O)[C@H](Cc3c[nH]c4ccccc34)NC(=O)[C@H](Cc3ccccc3)NC(=O)[C@@H]3CCCN3C(=O)[C@H](CCC(N)=O)NC1=O)C(=O)N[C@@H](CCCCN)C(=O)N[C@@H](CCC(N)=O)C(=O)N[C@@H](CC(=O)O)C(=O)N[C@@H](CO)C(=O)N[C@@H](CC(=O)O)C(=O)N2 [VEGF_CKP9] (H-GCQLMQPFWGCKQDSDCLAGCVCHWYQSCG-OH; disulfide 2-21, 11-17, 23-29 (inferred); N-terminus and C-terminus assumed) was tested. Which “S/N (signal to noise ratio as compared to BSA control)” value (hVEGF(8-109); Table 19) did it give?
A: The value was 36.0.

Q: And the “S/N (signal to noise ratio as compared to BSA control)” value (hVEGF(8-109); Table 22)?
A: Its value is 7.4.

Q: What about the “S/N (signal to noise ratio as compared to BSA control)” value (hVEGF(8-109); Table 23) of the same compound?
A: The value was 11.6.

Q: What about the “S/N (signal to noise ratio as compared to BSA control)” value (hVEGF(8-109); Table 24) of the same compound?
A: Its value is 7.4.

Q: What about the ELISA (hVEGF(8-109); VEGF_CKP9 Loop1/Loop5 affinity-matured variants, Table 24) of the same compound?
A: The ELISA was 0.4.

Q: And the ELISA (hVEGF(8-109); VEGF_CKP9 Loop1 affinity-matured variants, Table 22)?
A: Its ELISA is 0.4.

Q: And the ELISA (hVEGF(8-109); VEGF_CKP9 Loop5 affinity-matured variants, Table 23)?
A: Its ELISA is 0.9.

Q: What about the ELISA (hVEGF(8-109); spot phage ELISA signal, EETI-II-based binders against hVEGF-A, Table 19) of the same compound?
A: The ELISA was 3.3.

Q: What about the kd (hVEGF-A (8-109); [1]) of the same compound?
A: Its kd is 40.
